We go through two compounds from PMC10283505, “CVM-1118 (foslinanib), a 2-phenyl-4-quinolone derivative, promotes apoptosis and inhibits vasculogenic mimicry via targeting TRAP1” (Pathology and Oncology Research, 2023).

Molecules are shown by their SMILES.

Assay [1] deals with human melanoma (C8161) cells. In words: In vitro VM assay (3D Matrigel tubular network). In kind it is cell-based. Conditions: 24 h. As for the experimental part:
Aggressive human melanoma (C8161) cells were seeded at 1.0 × 10^5 onto 3D polymerized LDEV-free Matrigel (75 μL; 14 mg/ml; Corning Cat. No. 356232) for VM analysis in 12-well dishes containing no drug or various concentrations of CVM-1118. Matrigel-coated dishes were photographed for tubular network formation after 24 h.

The next assay has as its system Nodal. Kind of assay: Western blot of Nodal (ProNodal) protein. In kind it is cell-based, human. Conditions: C8161, 10 nM, 24 h, corrected to β-actin. As for the experimental part: Cells at 80% confluence were rinsed with PBS, harvested by scrapping into a modified RIPA buffer plus protease inhibitor cocktail using 100 μL buffer per 1 × 10^6 cells. After sonication and centrifugation, the protein concentrations in the supernatants were determined using a BCA assay (Thermo Fisher Scientific). […] Nodal was detected using a mouse monoclonal anti-Nodal antibody (sc-373910; Santa Cruz; 1 μg/ml in 20 mM Tris/150 mM NaCl/0.1% [w/v] Tween 20, pH 7.4 [TBST] plus 5% BSA) followed by an anti-mouse plus horseradish peroxidase (HRP) secondary antibody (NXA931; GE Healthcare; 1 μg/ml in TBST plus 5% BSA) and enhanced chemiluminescence (ECL; GE Healthcare). Smad2 was detected using a rabbit polyclonal anti-Smad2/3 antibody (07-408; Millipore; 1 μg/ml in TBST plus 5% BSA) followed by an anti-rabbit plus HRP secondary antibody (NA934V; GE Healthcare; 1 μg/ml in TBST plus 5% BSA) and ECL. […] To assess relative changes in protein expression, the exposed films were digitized using a ChemiDoc XRS imager (Bio-Rad Laboratories) and the relative amount of protein determined against the untreated control cells normalized to a value of 1.0 using the imager’s Quantity One software package (Bio-Rad Laboratories) and corrected for loading of protein into each lane against the β-actin protein measured in the control lane.
Background: In western blotting, separated proteins are transferred to a membrane and probed.

The target in another assay is T1, TGFβig-h3 (Homo sapiens, UniProt Q15582).
T1 sequence (Q15582 24-683): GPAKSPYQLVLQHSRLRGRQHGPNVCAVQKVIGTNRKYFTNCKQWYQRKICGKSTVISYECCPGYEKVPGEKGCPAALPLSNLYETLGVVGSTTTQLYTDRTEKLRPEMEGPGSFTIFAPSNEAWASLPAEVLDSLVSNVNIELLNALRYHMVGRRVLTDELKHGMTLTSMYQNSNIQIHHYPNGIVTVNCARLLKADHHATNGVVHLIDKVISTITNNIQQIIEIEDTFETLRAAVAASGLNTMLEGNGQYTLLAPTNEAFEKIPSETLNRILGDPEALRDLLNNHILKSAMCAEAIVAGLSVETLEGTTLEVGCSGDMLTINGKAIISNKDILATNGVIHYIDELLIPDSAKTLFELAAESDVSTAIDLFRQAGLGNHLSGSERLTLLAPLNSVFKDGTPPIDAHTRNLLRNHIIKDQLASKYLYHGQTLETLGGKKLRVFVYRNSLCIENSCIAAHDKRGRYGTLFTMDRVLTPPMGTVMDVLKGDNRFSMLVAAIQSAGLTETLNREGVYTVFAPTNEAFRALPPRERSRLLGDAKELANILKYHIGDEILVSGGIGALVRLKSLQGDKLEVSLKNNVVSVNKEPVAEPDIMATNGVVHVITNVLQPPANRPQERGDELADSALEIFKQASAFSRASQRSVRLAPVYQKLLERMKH
In words: Surface plasmon resonance (Biacore). Conditions: TGFβig-h3, SPR. In kind it is binding.

In the next assay the test system is SNB-75. In words: NCI 60 cytotoxicity screening. In kind it is cell-based. Conditions: Homo sapiens; SNB-75, CNS.
For a further assay, the system named is IGROV1. Kind of assay: NCI 60 cytotoxicity screening. In kind it is cell-based. Particulars: Homo sapiens, IGROV-1; IGROV1, Ovarian.
A further assay concerns UACC-62. In words: NCI 60 cytotoxicity screening. In kind it is cell-based. Particulars: Homo sapiens; UACC-62, Melanoma.
The subject of the next assay is PC-3. In words: NCI 60 cytotoxicity screening. In kind it is cell-based. Particulars: Homo sapiens; PC-3, Prostate.
Another assay concerns NCI-H460. In words: NCI 60 cytotoxicity screening. In kind it is cell-based. Conditions: Homo sapiens; NCI-H460, NSCLC.
The next assay relates to HCT-116. Kind of assay: NCI 60 cytotoxicity screening. In kind it is cell-based. Particulars: Homo sapiens.
The subject of another assay is RPMI-8226. Kind of assay: NCI 60 cytotoxicity screening. In kind it is cell-based. Particulars: Homo sapiens; RPMI-8226, Leukemia.
Another assay has as its system NCI-H23. Kind of assay: NCI 60 cytotoxicity screening. In kind it is cell-based. Conditions: Homo sapiens; NCI-H23, NSCLC.
For the next assay, the system named is SK-OV-3. Kind of assay: NCI 60 cytotoxicity screening. In kind it is cell-based. Conditions: Homo sapiens; SK-OV-3, Ovarian.
A further assay deals with A549/ATCC. In words: NCI 60 cytotoxicity screening. In kind it is cell-based. Particulars: Homo sapiens, NSCLC.
Another assay has as its system MOLT-4. Kind of assay: NCI 60 cytotoxicity screening. In kind it is cell-based. Particulars: Homo sapiens; MOLT-4, Leukemia.

Regarding `COc1ccc2[nH]c(-c3cccc(F)c3)cc(=O)c2c1OP(=O)(O)O` [CVM-1118], the “VM (in vitro) tubular network formation” value in assay [1] (C8161, 5 nM) is given as “disrupted”; in assay [1] (C8161, 10 nM), “significantly inhibited”; in assay [1] (C8161, 50 nM) it was “significantly inhibited”. Further, in the assay on Nodal, the “reduction of Nodal protein levels” value came out at 63%.

Usually GI50 stands for the concentration giving 50% growth inhibition. The low end stands for more potent growth inhibition, the high end for less potent growth inhibition. A word on the IC50: it is the concentration that inhibits the measured activity by half. High values mean lower potency, low ones higher potency. With `COc1ccc2[nH]c(-c3cccc(F)c3)cc(=O)c2c1O` [CVM-1125], the “Association (ka)” value at TGFβig-h3 is “No interaction”. Further, the “Dissociation (kd)” value at TGFβig-h3 is listed as “No interaction”. In addition, the “KD (kd/ka)” value at TGFβig-h3 is “No interaction”. Further, the GI50 in the assay on SNB-75 amounted to 15 nM; in the assay on IGROV1, 27 nM; in the assay with UACC-62, 31 nM; with PC-3, 32.6 nM; in the assay on NCI-H460 it was 32.8 nM; in the assay with HCT-116 (HCT-116, Colon) it was 33 nM. Besides, the GI50 was determined as 33.1 nM in the assay with RPMI-8226; 34.5 nM with NCI-H23; 35.6 nM in the assay on SK-OV-3; 41.4 nM in the assay on A549/ATCC; 47.6 nM in the assay with MOLT-4. The compound further yielded a 50% inhibitory concentration (IC50) with HCT-116 (HCT-116, refers to Supplementary Table S2) of 33 nM.
